Literature values, collected in patent US5744455A (priority 1993, dated 1998).
Where two headings read alike, the source gives them in different places.

Columns and labels:
[1] = test system: doxorubicin cardiotoxicity; conditions: non-cancer-bearing animals
human tumors = conditions: single agents
[2] = test system: doxorubicin-induced toxicity; conditions: humans and other species
[3] = not given; remark: listed apart in the source
heart lesions = conditions: doxorubicin and ICRF 187
[4] = test system: daunorubicin cardiotoxicity; conditions: ICRF 187 given prior to daunorubicin
[5] = test system: chronic cardiotoxicity induced by Adriamycin; conditions: ICRF 187 12.5 mg/kg 30 minutes prior to Adriamycin 1.0 mg/kg
[6] = not given; remark: listed apart in the source
[7] = test system: chronic daunorubicin cardiotoxicity; conditions: 30 minutes prior to daunorubicin, 12.5 and 25 mg/kg
[8] = test system: cardiac glutathione peroxidase
[9] = not given; remark: listed apart in the source
myocardial lesions = conditions: doxorubicin alone

Structure (SMILES): CC(CN1CC(=O)NC(=O)C1)N1CC(=O)NC(=O)C1 (racemic) [ICRF 159, (±)-1,2-bis(3,5-dioxopiperazinyl-1-yl)propane]
- doxorubicin cardioprotection [1]: shown promise
- solubility: low solubility
- anti-tumor effect as single agent (human tumors): little effect against human tumors

Structure (SMILES): Cc1c(C)c2c(c(C)c1O)CCC(C)(CCCC(C)CCCC(C)CCCC(C)C)O2 (stereo not drawn) [Alpha-tocopherol]
- cardioprotection against doxorubicin-induced toxicity [2]: did not result in significant cardioprotection

Structure (SMILES): O=C(O)CN(CCN(CC(=O)O)CC(=O)O)CC(=O)O [EDTA, ethylenediaminetetraacetic acid]
- erythrocyte ghost destruction by iron-doxorubicin complex (erythrocyte ghost): can prevent erythrocyte ghost destruction

Structure (SMILES): O=c1[nH]cc(F)c(=O)[nH]1 [Fluorouracil, fluorouracil]
- oral absorption [3]: very poor absorption

Structure (SMILES): C[C@@H](CN1CC(=O)NC(=O)C1)N1CC(=O)NC(=O)C1 [ICRF 187, (+)-1,2-bis(3,5-dioxopiperazinyl-1-yl)propane]
- doxorubicin cardioprotection [1]: shown promise
- dogs with no abnormalities in the hearts (heart lesions): three of six
- dogs with minimal heart lesions (heart lesions; six dogs): three
- daunorubicin lethality and cardiotoxicity [4]: a reduction of lethality and cardiotoxicity
- Adriamycin-induced chronic cardiotoxicity [5]: prevented cardiotoxicity in all treated animals
- SGOT and SGPT, vomiting, alopecia ([6]; 1500 mg/m^2): mild elevations of SGOT (serum glutamate-oxalate transaminase) and SGPT (serum glutamic-pyruvic transaminase), occasional vomiting and some alopecia
- predominant adverse effects ([6]; 1500 mg/m^2): leukopenia and thrombocytopenia
- dose limiting toxicity ([6]; administered three times daily, every three days, only chemotherapeutic agent): 1500 mg/m^2
- dose limiting toxicity ([6]; daily, for three consecutive days every three weeks): 1500 mg/m^2
- solubility: more water soluble
- chronic daunorubicin cardiotoxicity [7]: reduced
- anti-tumor effect as single agent (human tumors): little effect against human tumors

Structure (SMILES): CC(=O)N[C@@H](CS)C(=O)O [N-acetyl cysteine]
- cardioprotection against doxorubicin-induced toxicity [2]: did not result in significant cardioprotection

Structure (SMILES): COc1cccc2c1C(=O)c1c(O)c3c(c(O)c1C2=O)C[C@@](O)(C(=O)CO)C[C@@H]3O[C@H]1C[C@H](N)[C@H](O)[C@H](C)O1 [doxorubicin]
- cardiac glutathione peroxidase activity [8]: directly depresses cardiac glutathione peroxidase activity
- risk for development of cardiotoxicity ([9]; accumulated doses greater than 450 mg/m^2): greater than 10%
- alopecia (hair loss) ([9]; human, in vivo): occurs frequently
- nausea and vomiting ([9]; human, in vivo): occur regularly
- peak of myelosuppression ([9]; human, in vivo): approximately 14±2 days
- recovery from myelosuppression ([9]; human, in vivo): 15 to 18 days
- cardiotoxicity on prolonged infusion ([9]; infusion over extended periods, e.g., 96 hours): small but measurable decrease in cardiotoxicity
- patients developing unacceptable clinical toxicity ([9]; total cumulative dose 450 mg/m^2): 5-10%
- animals with myocardial lesions (myocardial lesions): eight of nine
